This is an account of results in patent US11485727B2, “N-methyl, n-(6-(methoxy)pyridazin-3-yl) amine derivatives as autotaxin (ATX) modulators” (Boehringer Ingelheim International GmbH, priority 2019, dated 2022).

One experiment addresses ATX in human whole blood (Homo sapiens (Human), UniProt Q13822). The experiment is described as follows: Assay B: Whole-Blood ATX Assay.
Conditions: not given
The class given is biochemical.
Consider `CC(=O)N1CC2CCC(C1)N2c1ccc(CNc2ccc(OCc3ccc(C(F)(F)F)nc3)nn2)cc1` [Example 2.19], for which the concentration for half-maximal inhibition (IC50) was found to be 2 nM.

Still in this experiment, the particulars now being: human whole-blood, 1 h at 37° C., formation of 18:2 LPA; read-out: Human whole blood LPA IC50.
As for `CC(=O)N1CC2(C1)CN(c1ccc(CNc3ccc(OCc4ccc(C(F)(F)F)nc4)nn3)cc1)C2` [Example 1.1, 1-(6-(4-(((6-((6-(trifluoromethyl)pyridin-3-yl)methoxy)pyridazin-3-yl)amino)methyl)phenyl)-2,6-diazaspiro[3.3]heptan-2-yl)ethan-1-one], the concentration for half-maximal inhibition (IC50) came out at 1.7 nM.
Same read-out and setting: then `CC(=O)N1CC2(C1)CN(c1ccc(CNc3ccc(OCc4ccc(C(F)F)nc4)nn3)cc1)C2` [Example 1.2], with 1 nM; and `CC(=O)N1CCN(c2ccc(CNc3ccc(OCc4ccc(C(F)F)nc4)nn3)cc2F)CC1` [Example 1.3], with 1.6 nM; and `CC(=O)N1CCN(c2ccc(CNc3ccc(OCc4ccc(C(F)F)nc4)nn3)c(F)c2)CC1` [Example 1.4], with 2.8 nM.
Still for that read-out and setting: the result for `CN1CC2(CC1=O)CN(c1ccc(CNc3ccc(OCc4ccc(C(F)F)nc4)nn3)cc1)C2` [Example 1.5] reads 2 nM; that for `CC(=O)N1CCC2(CC1)CN(c1ccc(CNc3ccc(OCc4ccc(C(F)F)nc4)nn3)cc1)C2` [Example 1.6], 8.7 nM.
Turning to `CC(=O)N1CCN(c2ccc(CNc3ccc(OCc4ccc(C(F)F)nc4)nn3)cc2)CC1(C)C` [Example 1.7], the IC50 amounted to 12.4 nM.
Regarding `CC(=O)N(C)C1CCN(c2ccc(CNc3ccc(OCc4ccc(C(F)(F)F)nc4)nn3)cc2)CC1` [Example 2.1, N-methyl-N-[1-(4-{[(6-{[6-(trifluoromethyl)pyridin-3-yl]methoxy}pyridazin-3-yl)amino]methyl}phenyl)piperidin-4-yl]acetamide], the IC50 is 4.7 nM.
Still for that read-out and setting: then `CC(=O)N1CCN(c2ccc(CNc3ccc(OCc4ccc(C(F)(F)F)nc4)nn3)cc2)CC1` [Example 2.2], with 4.7 nM; and `CC(=O)N1CCN(c2ccc(CNc3ccc(OCc4ccc(C(F)F)nc4)nn3)cn2)CC1` [Example 2.3], with 4.4 nM.
Turning to `CC(=O)N1CCN(c2ccc(CNc3ccc(OCc4ccc(C(F)F)nc4)nn3)nc2)CC1` [Example 2.4], the IC50 is 6.8 nM.
On the same count and under the same terms, the result for `CC(=O)N1CCN(c2ccc(CNc3ccc(OCc4ccc(C(F)(F)F)nc4)nn3)cn2)CC1` [Example 2.5] reads 4 nM; that for `CC(=O)N1CC2CC1CN2c1ccc(CNc2ccc(OCc3ccc(C(F)F)nc3)nn2)cc1` (stereo not drawn) [Example 2.6], 3.2 nM; that for `CC(=O)N1CCN(c2ccc(CNc3ccc(OCc4ccc(C(F)F)nc4)nn3)c(C(F)(F)F)c2)CC1` [Example 2.7], 7 nM.
Same read-out and setting: then `FC(F)(F)c1ccc(COc2ccc(NCc3ccc(N4CCN(C5COC5)CC4)cc3)nn2)cn1` [Example 2.8], with 2.4 nM; and `CC(=O)N1CC2(C1)CN(c1ccc(CNc3ccc(OCc4ccc(C(F)(F)F)nc4)nn3)cc1F)C2` [Example 2.9], with 4.1 nM.
Still for that read-out and setting: the result for `FC(F)c1ccc(COc2ccc(NCc3ccc(N4CCN(C5COC5)CC4)cc3)nn2)cn1` [Example 2.10] reads 2.2 nM; that for `CC(=O)N[C@H]1[C@@H]2CN(c3ccc(CNc4ccc(OCc5ccc(C(F)(F)F)nc5)nn4)cc3)C[C@@H]21` [Example 2.11], 4 nM; that for `CC(=O)N1CCN(c2ccc(CNc3ccc(OCc4cnc(C(F)F)c(F)c4)nn3)cc2)CC1` [Example 2.12], 4.3 nM.
Regarding `CC(=O)N1C[C@@H]2CN(c3ccc(CNc4ccc(OCc5ccc(C(F)F)nc5)nn4)cc3)C[C@@H]2C1` [Example 2.14], the IC50 was 2.8 nM.
On the same count and under the same terms, then `CC(=O)N1CCN(c2ccc(CNc3ccc(OCc4ccc(C(F)(F)F)nc4)nn3)nc2)CC1` [Example 2.15], with 9.3 nM; and `CC(=O)N1CCC2(CC1)CN(c1ccc(CNc3ccc(OCc4ccc(C(F)F)nc4)nn3)nc1)C2` [Example 2.16], with 5.1 nM; and `CC(=O)N1CCC2(CC1)CN(c1ccc(CNc3ccc(OCc4ccc(C(F)(F)F)nc4)nn3)cn1)C2` [Example 2.17], with 3.5 nM.
Consider `CC(=O)N1CCC2(CC1)CN(c1ccc(CNc3ccc(OCc4ccc(C(F)F)nc4)nn3)cn1)C2` [Example 2.18], for which the IC50 is 4.1 nM.
The same measure, in the same setting: the result for `CC(=O)N1CC2CCC1CN2c1ccc(CNc2ccc(OCc3ccc(C(F)(F)F)nc3)nn2)cc1` (stereo not drawn) [Example 2.20] reads 3.7 nM.
Same read-out and setting: the result for `CC(=O)N1CC2(C1)CN(c1ccc(CNc3ccc(OCc4ccc(C(F)(F)F)nc4)nn3)c(F)c1)C2` [Example 2.21] reads 1.4 nM.
Still for that read-out and setting: the result for `CC(=O)N1CCC2(CC1)CN(c1ccc(CNc3ccc(OCc4ccc(C(F)(F)F)nc4)nn3)cc1)C2` [Example 2.22] reads 3.9 nM; that for `CC(=O)N1CC2CC1CN2c1ccc(CNc2ccc(OCc3ccc(C(F)(F)F)nc3)nn2)cc1` (stereo not drawn) [Example 2.23], 3.6 nM; that for `CC(=O)N1CCN(c2ccc(CNc3ccc(OCc4ccc(C(F)F)nc4)nn3)cc2)CC1` [Example 3, 1-[4-(4-{[(6-{[6-(Difluoromethyl)pyridin-3-yl]methoxy}pyridazin-3-yl)amino]methyl}-phenyl)piperazin-1-yl]ethan-1-one], 1.9 nM.
Turning to `CC(=O)N1CC[C@@H]2CN(c3ccc(CNc4ccc(OCc5ccc(C(F)(F)F)nc5)nn4)cc3)C[C@@H]2CC1` [Example 4], the IC50 is 7.1 nM.
The same measure, in the same setting: the result for `CC(=O)N1C[C@@H]2[C@H](C1)[C@H]1CN(c3ccc(CNc4ccc(OCc5ccc(C(F)(F)F)nc5)nn4)cc3)C[C@@H]21` [Example 5, 1-((3aR,3bS,6aR,6bS)-5-(4-(((6-((6-(trifluoromethyl)pyridin-3-yl)methoxy)pyridazin-3-yl)amino)methyl)phenyl)octahydrocyclobuta[1,2-c:3,4-c′]dipyrrol-2(1H)-yl)ethan-1-one] reads 7.5 nM.

A further experiment deals with LPA levels.
Experiment: not given
To be noted: as disclosed in C. Kuttruff, et al.; cited from earlier work.
In the case of `O=C(NC[C@@H]1[C@H]2CN(C(=O)OCc3cc(C(F)(F)F)cc(C(F)(F)F)c3)C[C@@H]12)c1ccc2[nH]nnc2c1`, the “LPA levels in vivo” value is “significantly reduces”.
